Data on one molecule can be found in patent US8501806B2, “Methods for preventing or reducing colon carcinogenesis” (Nogra Pharma Limited, priority 2008, dated 2013).

This series has as its system colitis-associated colon cancer. The series is described as follows: AOM/DSS colitis-associated colon cancer. Format: in vivo, Balb/c mice. The note with it: i.p. 16 mg/kg/mouse every second day for 49 days. As to the method:
Balb/c mice were given a first i.p. injection of AOM (10 mg/kg) on day O, Seven days after the AOM injection, the mice were given 2% DSS in the drinking water for 7 days. One week after the discontinuation of DSS administration, the mice were given a second i.p. injection of AOM (5 mg/kg). Then, 7 days after the second AOM injection, the mice were again given 2% DSS in the drinking water for 7 days. Two weeks later, the mice were randomly divided into two groups receiving i.p. injection of PBS or 16 mg/kg/mouse compound 14 every second day, for 49 days until sacrifice. (To rule out the possibility that compound 14 could interfere with the ongoing mucosal inflammation, treatment was started 2 weeks after the last DSS administration.) Mice were endoscopically screened, and neoplastic lesions were scored as previously described All mice were sacrificed at the end of the study, and colonic samples were used for histological analysis and isolating lamina propria mononuclear cells (LPMC). An aliquot of LPMC was assessed for the expression of CD4, CD8, and CD25 by flow-cytometry using the following antibodies (CD4: cat. 552051, BD Pharmigen, Milan, Italy; CD8: cat. 22150084S and CD25: cat. 22150253, Immunotools, Friesoythe, Germany), while the remaining LPMC were used for extracting RNA and assessing the expression of COX-2, TNFα, and IL-1β by real-time PCR. To this end, the following primers were used: COX-2: FWD: 5′-[…]-3′; REV: 5′-[…]-3′, TNFα: FWD: 5′-[…]-3′; REV: 5′-[…]-3, IL-1β: FWD: 5′-[…]-3′; REV: 5′-[…]-3.
Colonic sections were stained with hematoxylin and eosin (H&E). The degree of inflammation and the presence of neoplastic lesions were evaluated and graded by the same pathologist in a blinded fashion. Immunohistochemistry for PCNA was performed using a PCNA staining kit (ZYMED Laboratories, Carlsbad, Calif., U.S.A.) according to the manufacturer's instructions. […] A polypoidor flat lesion is seen in control and compound 14-treated mice respectively.

As for `COc1ccc(N)cc1C(=O)NO` [compound 14, 2-methoxy-5-amino-N-hydroxybenzamide], the “PCNA staining in normal colonic mucosa” value is on record as “no significant change” and the “PCNA staining of neoplastic lesions” value is “confirmed the anti-proliferative effect”. In addition, the “multiplicity of neoplastic lesions (polypoid and flat)” value (FIG. 8C) was “significantly reduced both types of lesions”.
